Measurements taken from patent publication US20020076736A1, “Methods of affecting laminin 5 processing” (priority 2000, published 2002).
Entries after “also recorded” stand apart in the source; their conditions may differ.

Assays:
MT1-MMP = MT1-MMP (Homo sapiens, UniProt P50281); experiment: Inhibition of MT1-MMP activity; format: biochemical
squamous carcinoma cells = experiment: Migration of squamous carcinoma cells (general statement); format: cell-based
MMP-2 = target: T1, MMP-2 (Homo sapiens, UniProt P08253); experiment: Inhibition of MMP-2 activity; format: biochemical
T1 sequence (P08253 110-660): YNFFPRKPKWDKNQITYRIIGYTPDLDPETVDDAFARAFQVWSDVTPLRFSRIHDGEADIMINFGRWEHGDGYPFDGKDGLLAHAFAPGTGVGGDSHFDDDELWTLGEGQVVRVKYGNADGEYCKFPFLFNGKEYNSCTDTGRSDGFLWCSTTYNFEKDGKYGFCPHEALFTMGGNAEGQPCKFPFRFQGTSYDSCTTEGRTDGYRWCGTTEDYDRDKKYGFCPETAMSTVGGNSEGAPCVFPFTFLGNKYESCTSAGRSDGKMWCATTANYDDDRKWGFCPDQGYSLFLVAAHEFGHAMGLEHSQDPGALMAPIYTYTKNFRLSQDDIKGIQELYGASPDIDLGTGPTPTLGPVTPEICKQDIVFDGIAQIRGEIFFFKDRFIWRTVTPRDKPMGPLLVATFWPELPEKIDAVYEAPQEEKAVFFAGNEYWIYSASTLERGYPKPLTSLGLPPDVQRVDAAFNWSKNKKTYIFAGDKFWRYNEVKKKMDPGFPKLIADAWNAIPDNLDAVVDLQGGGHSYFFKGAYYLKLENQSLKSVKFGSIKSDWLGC

keratinocytes = experiment: Keratinocyte migration, Boyden chambers; format: cell-based; conditions: for inhibition of keratinocyte migration, dose dependence: Boyden chamber and scratch assays
Procedure: Compounds 1 and 2 were used to examine the functional effects of processing by BMP-1 related proteins on keratinocyte migration. […] Keratinocytes were analyzed for migration in Boyden chambers in the presence of increasing amounts of the inhibitors. […] (Koivunen et al. (1999) Nature Biotechnology 17:768-774.)

cultured cells = experiment: Toxicity to cultured cells; format: cell-based; conditions: for toxicity to cultured cells at 100 times inhibitory levels: 100 times the concentration which inhibited BMP-1 activity; for toxic effect on cells: cell culture
MMP-9 = MMP-9 (Homo sapiens, UniProt P14780); experiment: Inhibition of MMP-9 activity; format: biochemical
BMP-1 = target: T2, BMP-1 (Homo sapiens, UniProt P13497); experiment: Inhibition of BMP-1 activity, enzyme-based assays of collagen proteolysis; format: biochemical
T2 sequence (P13497 121-730 isoform P13497-2 limits assumed): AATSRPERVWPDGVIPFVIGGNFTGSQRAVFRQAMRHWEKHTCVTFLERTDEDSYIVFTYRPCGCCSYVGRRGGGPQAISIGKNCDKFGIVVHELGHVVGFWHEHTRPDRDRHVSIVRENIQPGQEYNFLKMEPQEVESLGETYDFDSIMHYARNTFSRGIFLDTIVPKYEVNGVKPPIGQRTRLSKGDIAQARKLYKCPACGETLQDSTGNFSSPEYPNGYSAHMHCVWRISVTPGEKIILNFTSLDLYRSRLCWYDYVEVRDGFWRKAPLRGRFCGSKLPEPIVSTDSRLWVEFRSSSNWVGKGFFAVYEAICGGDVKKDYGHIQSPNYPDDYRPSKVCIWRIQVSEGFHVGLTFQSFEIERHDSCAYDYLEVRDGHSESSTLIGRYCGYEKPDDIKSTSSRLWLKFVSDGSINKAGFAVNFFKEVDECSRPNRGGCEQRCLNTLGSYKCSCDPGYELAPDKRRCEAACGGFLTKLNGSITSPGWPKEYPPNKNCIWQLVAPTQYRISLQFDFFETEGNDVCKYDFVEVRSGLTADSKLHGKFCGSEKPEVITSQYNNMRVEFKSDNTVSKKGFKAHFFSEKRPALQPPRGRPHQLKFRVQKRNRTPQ

MMP-1 = target: T3, MMP-1 (Homo sapiens, UniProt P03956); experiment: Inhibition of MMP-1 activity; format: biochemical
T3 sequence (P03956 100-469): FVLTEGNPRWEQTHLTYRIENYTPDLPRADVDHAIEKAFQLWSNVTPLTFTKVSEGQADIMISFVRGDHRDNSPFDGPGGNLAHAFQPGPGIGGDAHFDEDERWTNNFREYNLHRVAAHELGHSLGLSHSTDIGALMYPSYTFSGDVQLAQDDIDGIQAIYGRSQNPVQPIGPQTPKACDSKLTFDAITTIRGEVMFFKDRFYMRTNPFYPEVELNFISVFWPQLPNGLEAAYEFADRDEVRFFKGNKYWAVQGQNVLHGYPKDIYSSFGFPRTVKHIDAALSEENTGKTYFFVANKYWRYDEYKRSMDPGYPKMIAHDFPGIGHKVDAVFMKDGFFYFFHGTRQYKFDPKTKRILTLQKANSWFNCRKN

[1] = target: unprocessed human laminin 5 (α3 chain of 200 kDa, β3 chain of 140 kDa, γ2 chain of 155 kDa) (UniProt Q16787)
[2] = target: unprocessed human laminin 5 (α3 chain of 200 kDa, β3 chain of 140 kDa, γ2 chain of 155 kDa), Q16787
unprocessed human laminin 5 (α3 chain of 200 kDa, β3 chain of 140 kDa, γ2 chain of 155 kDa), Q16787, sequence (Q16787 whole entry, looked up): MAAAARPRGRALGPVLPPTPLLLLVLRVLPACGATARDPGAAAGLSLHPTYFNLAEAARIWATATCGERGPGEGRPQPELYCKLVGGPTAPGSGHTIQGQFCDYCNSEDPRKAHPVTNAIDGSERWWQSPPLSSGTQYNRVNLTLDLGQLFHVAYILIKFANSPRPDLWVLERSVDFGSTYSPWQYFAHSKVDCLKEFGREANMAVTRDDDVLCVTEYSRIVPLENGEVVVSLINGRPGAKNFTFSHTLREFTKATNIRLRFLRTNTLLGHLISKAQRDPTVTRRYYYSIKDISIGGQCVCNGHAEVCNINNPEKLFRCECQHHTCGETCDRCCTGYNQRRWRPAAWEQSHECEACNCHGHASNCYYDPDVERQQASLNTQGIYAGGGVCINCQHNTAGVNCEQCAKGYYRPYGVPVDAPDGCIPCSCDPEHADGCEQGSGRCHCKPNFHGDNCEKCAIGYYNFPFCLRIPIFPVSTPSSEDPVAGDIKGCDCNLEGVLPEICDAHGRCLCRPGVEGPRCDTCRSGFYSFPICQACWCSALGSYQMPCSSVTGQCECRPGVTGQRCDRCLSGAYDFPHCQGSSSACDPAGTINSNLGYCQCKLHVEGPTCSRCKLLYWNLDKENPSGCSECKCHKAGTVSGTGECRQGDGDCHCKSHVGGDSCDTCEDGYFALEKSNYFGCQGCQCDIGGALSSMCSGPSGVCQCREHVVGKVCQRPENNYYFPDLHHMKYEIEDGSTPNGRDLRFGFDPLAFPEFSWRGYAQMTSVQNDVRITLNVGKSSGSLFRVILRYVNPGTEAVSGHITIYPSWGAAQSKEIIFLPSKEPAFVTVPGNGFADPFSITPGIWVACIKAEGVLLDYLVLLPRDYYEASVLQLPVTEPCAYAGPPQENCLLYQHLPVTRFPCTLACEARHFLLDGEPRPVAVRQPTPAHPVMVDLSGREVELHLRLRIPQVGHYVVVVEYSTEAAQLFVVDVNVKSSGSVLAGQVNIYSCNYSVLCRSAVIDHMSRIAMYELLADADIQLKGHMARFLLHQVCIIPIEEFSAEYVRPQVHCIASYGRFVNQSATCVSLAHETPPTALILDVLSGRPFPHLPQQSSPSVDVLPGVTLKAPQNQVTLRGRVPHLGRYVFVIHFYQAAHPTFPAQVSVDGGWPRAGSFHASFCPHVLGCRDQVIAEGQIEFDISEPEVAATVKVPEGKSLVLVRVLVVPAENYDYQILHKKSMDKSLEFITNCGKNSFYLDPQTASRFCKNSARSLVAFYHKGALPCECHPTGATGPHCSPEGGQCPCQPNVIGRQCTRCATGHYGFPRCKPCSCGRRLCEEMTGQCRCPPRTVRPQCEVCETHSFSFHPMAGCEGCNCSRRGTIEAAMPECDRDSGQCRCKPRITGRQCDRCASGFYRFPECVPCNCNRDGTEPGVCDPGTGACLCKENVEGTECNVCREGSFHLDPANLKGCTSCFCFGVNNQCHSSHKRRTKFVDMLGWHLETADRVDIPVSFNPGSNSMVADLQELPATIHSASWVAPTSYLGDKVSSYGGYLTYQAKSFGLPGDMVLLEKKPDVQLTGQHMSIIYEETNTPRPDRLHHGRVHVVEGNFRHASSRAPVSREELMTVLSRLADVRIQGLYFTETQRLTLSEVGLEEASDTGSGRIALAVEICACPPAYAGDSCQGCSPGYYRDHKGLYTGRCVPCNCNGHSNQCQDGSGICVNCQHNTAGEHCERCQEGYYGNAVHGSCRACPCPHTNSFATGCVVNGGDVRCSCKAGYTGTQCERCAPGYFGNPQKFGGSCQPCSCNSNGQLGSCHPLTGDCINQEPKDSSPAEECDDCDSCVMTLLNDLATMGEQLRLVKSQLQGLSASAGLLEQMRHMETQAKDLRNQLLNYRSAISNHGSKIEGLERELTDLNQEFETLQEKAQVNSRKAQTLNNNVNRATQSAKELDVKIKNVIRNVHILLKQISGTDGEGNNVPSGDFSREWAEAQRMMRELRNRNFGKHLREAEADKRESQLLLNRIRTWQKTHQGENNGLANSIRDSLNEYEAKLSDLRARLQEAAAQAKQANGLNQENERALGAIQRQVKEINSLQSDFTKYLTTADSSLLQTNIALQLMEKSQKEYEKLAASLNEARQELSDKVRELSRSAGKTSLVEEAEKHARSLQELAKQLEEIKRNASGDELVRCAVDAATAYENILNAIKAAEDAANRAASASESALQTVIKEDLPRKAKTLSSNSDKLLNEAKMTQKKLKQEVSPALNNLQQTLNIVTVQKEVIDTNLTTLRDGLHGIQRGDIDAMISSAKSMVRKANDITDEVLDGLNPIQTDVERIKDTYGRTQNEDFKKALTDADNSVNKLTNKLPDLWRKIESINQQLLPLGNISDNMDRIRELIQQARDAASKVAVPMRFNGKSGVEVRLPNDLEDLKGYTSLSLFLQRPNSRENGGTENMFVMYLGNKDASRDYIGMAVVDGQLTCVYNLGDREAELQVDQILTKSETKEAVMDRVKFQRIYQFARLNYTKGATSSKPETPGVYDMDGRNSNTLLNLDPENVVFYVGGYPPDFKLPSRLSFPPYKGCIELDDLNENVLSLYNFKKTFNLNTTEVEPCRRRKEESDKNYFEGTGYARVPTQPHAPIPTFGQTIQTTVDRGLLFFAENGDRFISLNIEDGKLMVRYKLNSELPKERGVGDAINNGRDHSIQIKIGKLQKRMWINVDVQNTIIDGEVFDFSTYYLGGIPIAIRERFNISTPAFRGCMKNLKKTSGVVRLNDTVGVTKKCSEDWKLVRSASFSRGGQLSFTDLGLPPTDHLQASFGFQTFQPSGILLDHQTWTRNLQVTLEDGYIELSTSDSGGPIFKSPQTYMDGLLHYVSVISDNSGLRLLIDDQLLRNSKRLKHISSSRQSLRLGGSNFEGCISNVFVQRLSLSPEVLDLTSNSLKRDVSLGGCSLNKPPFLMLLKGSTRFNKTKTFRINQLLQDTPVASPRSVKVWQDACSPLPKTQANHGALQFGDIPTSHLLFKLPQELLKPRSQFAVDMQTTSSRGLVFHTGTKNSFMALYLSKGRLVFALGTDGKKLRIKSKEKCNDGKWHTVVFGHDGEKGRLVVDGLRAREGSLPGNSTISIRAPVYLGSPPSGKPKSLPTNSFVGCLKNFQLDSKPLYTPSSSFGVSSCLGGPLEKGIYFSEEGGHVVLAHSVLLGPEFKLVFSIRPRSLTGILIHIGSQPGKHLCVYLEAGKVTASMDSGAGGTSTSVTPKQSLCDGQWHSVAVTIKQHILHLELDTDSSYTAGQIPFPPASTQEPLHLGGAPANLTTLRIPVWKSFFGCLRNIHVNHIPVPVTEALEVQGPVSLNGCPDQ

unprocessed human laminin 5 (α3 chain of 200 kDa, β3 chain of 140 kDa, γ2 chain of 155 kDa), sequence (Q16787 whole entry, looked up): as above
MMP-9, sequence (P14780 94-707, species assumed): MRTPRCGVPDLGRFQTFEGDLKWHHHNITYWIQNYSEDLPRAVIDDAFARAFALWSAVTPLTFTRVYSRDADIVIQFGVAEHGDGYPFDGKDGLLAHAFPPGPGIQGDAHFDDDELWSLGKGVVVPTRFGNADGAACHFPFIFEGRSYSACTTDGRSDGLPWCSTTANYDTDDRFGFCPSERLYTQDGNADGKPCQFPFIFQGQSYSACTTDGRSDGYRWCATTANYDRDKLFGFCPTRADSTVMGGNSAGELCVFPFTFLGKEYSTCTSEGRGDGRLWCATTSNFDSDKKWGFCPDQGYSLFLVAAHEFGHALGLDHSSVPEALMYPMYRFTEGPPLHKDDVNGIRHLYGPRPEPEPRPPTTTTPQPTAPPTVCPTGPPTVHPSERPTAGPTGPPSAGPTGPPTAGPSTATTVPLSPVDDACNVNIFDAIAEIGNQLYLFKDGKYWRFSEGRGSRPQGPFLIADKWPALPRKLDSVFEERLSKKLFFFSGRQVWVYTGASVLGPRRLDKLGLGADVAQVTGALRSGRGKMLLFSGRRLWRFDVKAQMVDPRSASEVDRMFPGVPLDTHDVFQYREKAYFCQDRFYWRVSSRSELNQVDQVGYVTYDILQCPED

How did the “inhibition of activity of MT1-MMP” value (MT1-MMP) turn out when `COc1ccc(CCN(CCC(=O)NO)S(=O)(=O)c2ccc(C(N)=NO)cc2)cc1` [Compound 3] was run?
The value was “no inhibition”.

What about the “inhibition of migration of squamous carcinoma cells” value (squamous carcinoma cells) of the same molecule?
The value was “potently inhibit”.

And the “inhibition of activity of MMP-2” value (MMP-2)?
The value was “no inhibition”.

What about the “inhibition of keratinocyte migration” value (keratinocytes) of the same molecule?
The value was “potently inhibit”.

What about the “inhibition of keratinocyte migration, dose dependence” value (keratinocytes) of the same molecule?
Its value is “inhibition of KC migration in a dose-dependent manner”.

And the “toxicity to cultured cells at 100 times inhibitory levels” value (cultured cells)?
The value was “nontoxic”.

What about the “toxic effect on cells” value (cultured cells) of the same molecule?
Its value is “low cytotoxicity; also recorded: no toxic effect on cells”.

What about the “inhibition of activity of MMP-9” value (MMP-9) of the same molecule?
The value was “no inhibition”.

What about the “inhibition of BMP-1 activity” value (BMP-1) of the same molecule?
Its value is “showed inhibition of BMP-1 activity”.

What about the “potency of BMP-1 inhibition relative to the other compounds” value (BMP-1) of the same molecule?
Its value is “slightly less potent”.

What about the “inhibition of activity of MMP-1” value (MMP-1) of the same molecule?
Its value is “no inhibition”.

What does the source list for `O=C(CCCC1C(=O)N(C23CC4CC(CC(C4)C2)C3)C(=O)N1Cc1ccccn1)NO` (stereo not drawn) [Compound 1]?
inhibition of activity of MT1-MMP (MT1-MMP): no inhibition; inhibition of migration of squamous carcinoma cells (squamous carcinoma cells): potently inhibit; inhibition of activity of MMP-2 (MMP-2): no inhibition; inhibition of keratinocyte migration (keratinocytes): potently inhibit; inhibition of keratinocyte migration, dose dependence (keratinocytes): inhibition of KC migration in a dose-dependent manner; dose required to achieve nearly complete inhibition of migration (keratinocytes; Boyden chambers): 23 µM; inhibition of migration of keratinocytes, dose dependence (keratinocytes; Boyden chambers, 0, 10, 23 μM): dose dependent; toxicity to cultured cells at 100 times inhibitory levels (cultured cells): nontoxic; toxic effect on cells (cultured cells): nontoxic; also recorded: no toxic effect on cells; inhibition of activity of MMP-9 (MMP-9): no inhibition; inhibition of BMP-1 activity (BMP-1): showed inhibition of BMP-1 activity; inhibition of activity of MMP-1 (MMP-1): no inhibition

human mammalian tolloid (mTld) was tested. Which “cleavage of the α3 chain of laminin 5 (matrix digestion, western blot)” value [1] did it give?
The value was “BMP-1, mTld, mTll-1, and mTLL-2 all cleaved the α3 chain of laminin 5”.

Which “cleavage of human laminin 5” value [1] does the source give for MMP-2 here?
Its value is “it failed to cleave human laminin 5, even at six times the enzyme-to-substrate ratio used for BMP-1 cleavage studies”.

And the “digestion of laminin 5 (100 ng/ml MMP-2, 37° C., 16 hours, western blot)” value [1]?
Its value is “no digestion of laminin 5 was seen with 100 ng/ml MMP-2 (over three times the amount of BMP-1 on a molar basis)”.

And the “processing of collagen XVII” value (collagen XVII)?
The value was “it readily processed collagen XVII and collagen IV”.

What about the “digestion of type IV collagen (positive control, data not shown)” value (type IV collagen) of the same molecule?
Its value is “MMP-2 completely digested an equimolar quantity of type IV collagen under the same conditions”.

And the “processing of collagen IV” value (type IV collagen)?
Its value is “it readily processed collagen XVII and collagen IV”.

B1: human BMP-1 (bone morphogenetic protein-1) (protein)
chain: T2 sequence (P13497 121-730 isoform P13497-2 limits assumed)
For B1, which “cleavage of the α3 chain of laminin 5 (matrix digestion, western blot)” value [2] is on record?
Its value is “BMP-1, mTld, mTll-1, and mTLL-2 all cleaved the α3 chain of laminin 5”.

What about the “cleavage of the γ2 chain of laminin 5 (matrix digestion, western blot)” value [2] of the same molecule?
The value was “BMP-1 and mTLL-2 cleaved the γ2 chain of laminin 5”.

And the “processing of the laminin 5 α3 chain (about 1 µg laminin 5 with 30 ng/ml BMP-1, 16 hours at 37° C., western blot)” value [2]?
The value was “laminin α3 chain was completely processed from 200 kDa to 165 kDa by BMP-1”.

B2: human mammalian tolloid-like-1 (mTll-1) (protein)
chain: AATSRTERIWPGGVIPYVIGGNFTGSQRAMFKQAMRHWEKHTCVTFIERSDEESYIVFTYRPCGCCSYVGRRGNGPQAISIGKNCDKFGIVVHELGHVIGFWHEHTRPDRDNHVTIIRENIQPGQEYNFLKMEPGEVNSLGERYDFDSIMHYARNTFSRGMFLDTILPSRDDNGIRPAIGQRTRLSKGDIAQARKLYRCPACGETLQESNGNLSSPGFPNGYPSYTHCIWRVSVTPGEKIVLNFTTMDLYKSSLCWYDYIEVRDGYWRKSPLLGRFCGDKLPEVLTSTDSRMWIEFRSSSNWVGKGFAAVYEAICGGEIRKNEGQIQSPNYPDDYRPMKECVWKITVSESYHVGLTFQSFEIERHDNCAYDYLEVRDGTSENSPLIGRFCGYDKPEDIRSTSNTLWMKFVSDGTVNKAGFAANFFKEEDECAKPDRGGCEQRCLNTLGSYQCACEPGYELGPDRRSCEAACGGLLTKLNGTITTPGWPKEYPPNKNCVWQVVAPTQYRISVKFEFFELEGNEVCKYDYVEIWSGLSSESKLHGKFCGAEVPEVITSQFNNMRIEFKSDNTVSKKGFKAHFFSDKDECSKDNGGCQHECVNTMGSYMCQCRNGFVLHDNKHDCKEAECEQKIHSPSGLITSPNWPDKYPSRKECTWEISATPGHRIKLAFSEFEIEQHQECAYDHLEVFDGETEKSPILGRLCGNKIPDPLVATGNKMFVRFVSDASVQRKGFQATHSTECGGRLKAESKPRDLYSHAQFGDNNYPGQVDCEWLLVSERGSRLELSFQTFEVEEEADCGYDYVELFDGLDSTAVGLGRFCGSGPPEEIYSIGDSVLIHFHTDDTINKKGFHIRYKSIRYPDTTHTKK
For B2, which “cleavage of the α3 chain of laminin 5 (matrix digestion, western blot)” value [2] is on record?
The value was “BMP-1, mTld, mTll-1, and mTLL-2 all cleaved the α3 chain of laminin 5”.

B3: human mammalian tolloid-like-2 (mTll-2) (protein)
chain: ATTSRTERIWPGGVIPYVIGGNFTGSQRAIFKQAMRHWEKHTCVTFIERTDEESFIVFSYRTCGCCSYVGRRGGGPQAISIGKNCDKFGIVAHELGHVVGFWHEHTRPDRDQHVTIIRENIQPGQEYNFLKMEAGEVSSLGETYDFDSIMHYARNTFSRGVFLDTILPRQDDNGVRPTIGQRVRLSQGDIAQARKLYKCPACGETLQDTTGNFSAPGFPNGYPSYSHCVWRISVTPGEKIVLNFTSMDLFKSRLCWYDYVEVRDGYWRKAPLLGRFCGDKIPEPLVSTDSRLWVEFRSSSNILGKGFFAAYEATCGGDMNKDAGQIQSPNYPDDYRPSKECVWRITVSEGFHVGLTFQAFEIERHDSCAYDYLEVRDGPTEESALIGHFCGYEKPEDVKSSSNRLWMKFVSDGSINKAGFAANFFKEVDECSWPDHGGCEHRCVNTLGSYKCACDPGYELAADKKMCEVACGGFITKLNGTITSPGWPKEYPTNKNCVWQVVAPAQYRISLQFEVFELEGNDVCKYDFVEVRSGLSPDAKLHGRFCGSETPEVITSQSNNMRVEFKSDNTVSKRGFRAHFFSDKDECAKDNGGCQHECVNTFGSYLCRCRNGYWLHENGHDCKEAGCAHKISSVEGTLASPNWPDKYPSRRECTWNISSTAGHRVKLTFNEFEIEQHQECAYDHLEMYDGPDSLAPILGRFCGSKKPDPTVASGSSMFLRFYSDASVQRKGFQAVHSTECGGRLKAEVQTKELYSHAQFGDNNYPSEARCDWVIVAEDGYGVELTFRTFEVEEEADCGYDYMEAYDGYDSSAPRLGRFCGSGPLEEIYSAGDSLMIRFRTDDTINKKGFHARYTSTKFQDALHMKK
Which “cleavage activity toward the α3 chain and γ2 chain of laminin 5, compared with the other BMP-1 related proteins” value [2] does the source give for B3 here?
Its value is “mTll-2 showed more potent cleavage activity toward the α3 chain and γ2 chain of laminin 5 compared to the other BMP-1 related proteins”.

And the “cleavage of the α3 chain of laminin 5 (matrix digestion, western blot)” value [2]?
Its value is “BMP-1, mTld, mTll-1, and mTLL-2 all cleaved the α3 chain of laminin 5”.

And the “cleavage of the γ2 chain of laminin 5 (matrix digestion, western blot)” value [2]?
Its value is “BMP-1 and mTLL-2 cleaved the γ2 chain of laminin 5”.
